Common to all, as to type: binding
Assay [1] concerns the target Recombinant human integrin α5β1 (Homo sapiens (Human), UniProt P05556+P08648). Nature of the assay: Solid Phase Receptor Assay (SPRA) for α5β1 function. To be noted: fibronectin-coated plate. As for the experimental part: 1. Solid Phase Receptor Assay (SPRA) for α5β1 Function
Purified human fibronectin (R&D Systems, 1918-FN) diluted to 2 μg/mL in TBS+ buffer (25 mM Tris pH 7.4, 137 mM NaCl, 2.7 mM KCl, 1 mM CaCl2, 1 mM MgCl2, 1 mM MnCl2) was added to wells (50 μL/well) of a 96-well half-well transparent microtiter plate (Greiner 675061) and incubated overnight at 4° C. Wells were washed 3 times with 150 μL TBS+ and 150 μL of blocking buffer (TBS+ with 1% bovine serum albumin, Sigma A7906) were added. The plate was incubated for 1 hr at 37° C. and then washed 3× with TBS+ buffer. Recombinant human integrin α5β1 (R&D Systems, 3230-A5) was diluted to 0.1 μg/mL in TBS+/0.1% bovine serum albumin. Compounds were diluted 1:100 into the integrin solution and then 50 μL added to empty wells of the washed fibronectin-coated plate according to a standard template with each sample repeated in triplicate. After incubation for two hours at room temperature, the plate was washed 3× with 150 μL of TBS+ buffer. To each well, 50 μl of biotinylated anti-α5 antibody (R&D Systems, BAF1864) at 0.5 μg/mL in TBS+/0.1% BSA were added and the plate covered and incubated for 1 hr at room temperature. After washing the plate 3× with 150 μL of TBS+ buffer, 50 μL of streptavidin-conjugated horseradish peroxidase (R&D Systems, DY998) diluted in TBS+ blocking buffer were added to the wells and the plate incubated for 20 min at room temperature. The plate was washed 3× with TBS+ buffer followed by 50 μL of room temperature TMB substrate (Sigma, T444) added to each well and the plate incubated for 20 min at room temperature. Plates were read by colorimetric detection at 650 nm wavelength using a Tecan Safire II plate reader. Concentration-response curves were constructed by non-linear regression (best fit) analysis, and IC50 values were calculated for each compound.

Assay [2] addresses Recombinant human integrin αvβ8 (Homo sapiens (Human), UniProt P06756+P26012). As to the kind of experiment: Solid Phase Receptor Assay (SPRA) for αvβ8 function. As to conditions: LAP-coated plate. As for the experimental part:
6. Solid Phase Receptor Assay (SPRA) for αvβ8 Function
Recombinant human LAP protein (R&D Systems, Inc, 246-LP) diluted to 0.5 μg/mL in TBS+ buffer (25 mM Tris pH 7.4, 137 mM NaCl, 2.7 mM KCl, 1 mM CaCl2, 1 mM MgCl2, 1 mM MnCl2) was added to wells (50 μl/well) of a 96-well half-well transparent microtiter plate (Greiner 675061), and incubated overnight at 4° C. Wells were washed 3 times with 150 μL TBS+ and 150 μL of blocking buffer (TBS+ with 1% bovine serum albumin, Sigma A7906) were added. The plate was incubated for 1 hr at 37° C. and then washed 3× with TBS+. Recombinant human integrin αvβ8 (R&D Systems, 4135-AV) was diluted to 0.1 μg/mL in TBS+/0.1% bovine serum albumin. Compounds were diluted 1:100 into the integrin solution and 50 μL added to empty wells of the washed LAP-coated plate according to a standard template with each sample repeated in triplicate. After incubation for two hours at room temperature, the plate was washed 3× with 150 μL of TBS+. To each well, 50 μL of biotinylated anti-αv antibody (R&D Systems, BAF1219) at 1 μg/mL in TBS+/0.1% BSA were added and the plate was covered and incubated for 1 hr at room temperature. After washing the plate 3× with 150 μL of TBS+ buffer, 50 μL of streptavidin-conjugated horseradish peroxidase (R&D Systems, DY998) diluted in TBS+ blocking buffer were added to the wells and the plate incubated for 20 min at room temperature. The plate was washed 3× with TBS+ followed by 50 μL of TMB substrate (Sigma T4444) added to each well and the plate incubated for 20 min at room temperature. Plates were read by colorimetric detection at 650 nm wavelength using a Tecan Safire II plate reader. Concentration-response curves were constructed by non-linear regression (best fit) analysis, and IC50 values were calculated for each compound.

Assay [3] concerns the target Recombinant human integrin αvβ3 (Homo sapiens (Human), UniProt P05106+P06756). As to the kind of experiment: Solid Phase Receptor Assay (SPRA) for αvβ3 function. As to conditions: vitronectin-coated plate. The procedure: 3. Solid Phase Receptor Assay (SPRA) for αvβ3 Function
Recombinant human vitronectin (R& D Systems, 2308-VN) diluted to 1 μg/mL in TBS+ buffer (25 mM Tris pH 7.4, 137 mM NaCl, 2.7 mM KCl, 1 mM CaCl2, 1 mM MgCl2, 1 mM MnCl2) was added to wells (50 μL/well) of a 96-well half-well transparent microtiter plate (Greiner 675061) and incubated overnight at 4° C. Wells were washed 3 times with 150 μL TBS+ and 150 μL of blocking buffer (TBS+ with 1% bovine serum albumin, Sigma A7906) were added. The plate was incubated for 1 hr at 37° C. and then washed 3× with TBS+ buffer. Recombinant human integrin αvβ3 (R&D Systems, 3050-AV) was diluted to 1 μg/mL in TBS+/0.1% bovine serum albumin. Compounds were diluted 1:100 into the integrin solution and then 50 μL added to empty wells of the washed vitronectin-coated plate according to a standard template with each sample repeated in triplicate. After incubation for two hours at room temperature, the plate was washed 3× with 150 μL of TBS+ buffer. To each well, 50 μL of biotinylated anti-αv antibody (R&D Systems, BAF1219) at 0.5 μg/mL in TBS+/0.1% BSA were added and the plate covered and incubated for 1 hr at room temperature. After washing the plate 3× with 150 μL of TBS+ buffer, 50 μL of streptavidin-conjugated horseradish peroxidase (R&D Systems, DY998) diluted in TBS+ blocking buffer were added to the wells and the plate incubated for 20 min at room temperature. The plate was washed 3× with TBS+ buffer followed by 50 μL of TMB substrate (Sigma, T4444) added to each well and the plate was incubated for 20 min at room temperature. Plates were read by colorimetric detection at 650 nm wavelength using a Tecan Safire II plate reader. Concentration-response curves were constructed by non-linear regression (best fit) analysis, and IC50 values were calculated for each compound.

Chain of Recombinant human integrin αvβ3 (P06756 31-992): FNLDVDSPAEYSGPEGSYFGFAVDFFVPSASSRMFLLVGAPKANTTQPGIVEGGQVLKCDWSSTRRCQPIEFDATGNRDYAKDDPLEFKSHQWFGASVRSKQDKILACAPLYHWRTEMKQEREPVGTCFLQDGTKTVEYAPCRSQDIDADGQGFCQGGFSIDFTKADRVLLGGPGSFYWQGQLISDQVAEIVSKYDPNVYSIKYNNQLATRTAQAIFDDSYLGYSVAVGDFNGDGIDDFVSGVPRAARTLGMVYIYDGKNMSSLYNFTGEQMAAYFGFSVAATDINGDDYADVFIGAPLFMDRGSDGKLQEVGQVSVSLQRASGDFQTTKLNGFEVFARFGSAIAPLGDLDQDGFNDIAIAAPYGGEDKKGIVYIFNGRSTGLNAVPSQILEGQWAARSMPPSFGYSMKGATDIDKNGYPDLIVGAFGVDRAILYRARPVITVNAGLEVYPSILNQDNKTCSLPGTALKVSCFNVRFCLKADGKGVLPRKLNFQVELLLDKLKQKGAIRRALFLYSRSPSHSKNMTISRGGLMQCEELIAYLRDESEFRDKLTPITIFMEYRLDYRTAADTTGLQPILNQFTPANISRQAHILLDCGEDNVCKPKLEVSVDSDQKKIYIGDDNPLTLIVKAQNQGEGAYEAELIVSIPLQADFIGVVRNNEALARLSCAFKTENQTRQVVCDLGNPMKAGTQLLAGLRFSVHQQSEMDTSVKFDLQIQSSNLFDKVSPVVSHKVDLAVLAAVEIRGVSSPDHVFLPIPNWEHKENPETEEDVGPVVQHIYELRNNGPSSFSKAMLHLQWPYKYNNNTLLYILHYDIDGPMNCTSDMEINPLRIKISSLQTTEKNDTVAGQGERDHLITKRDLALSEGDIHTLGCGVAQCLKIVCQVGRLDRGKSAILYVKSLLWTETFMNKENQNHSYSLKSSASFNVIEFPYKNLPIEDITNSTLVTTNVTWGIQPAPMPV
Chain of Recombinant human integrin αvβ3 (P05106 27-718): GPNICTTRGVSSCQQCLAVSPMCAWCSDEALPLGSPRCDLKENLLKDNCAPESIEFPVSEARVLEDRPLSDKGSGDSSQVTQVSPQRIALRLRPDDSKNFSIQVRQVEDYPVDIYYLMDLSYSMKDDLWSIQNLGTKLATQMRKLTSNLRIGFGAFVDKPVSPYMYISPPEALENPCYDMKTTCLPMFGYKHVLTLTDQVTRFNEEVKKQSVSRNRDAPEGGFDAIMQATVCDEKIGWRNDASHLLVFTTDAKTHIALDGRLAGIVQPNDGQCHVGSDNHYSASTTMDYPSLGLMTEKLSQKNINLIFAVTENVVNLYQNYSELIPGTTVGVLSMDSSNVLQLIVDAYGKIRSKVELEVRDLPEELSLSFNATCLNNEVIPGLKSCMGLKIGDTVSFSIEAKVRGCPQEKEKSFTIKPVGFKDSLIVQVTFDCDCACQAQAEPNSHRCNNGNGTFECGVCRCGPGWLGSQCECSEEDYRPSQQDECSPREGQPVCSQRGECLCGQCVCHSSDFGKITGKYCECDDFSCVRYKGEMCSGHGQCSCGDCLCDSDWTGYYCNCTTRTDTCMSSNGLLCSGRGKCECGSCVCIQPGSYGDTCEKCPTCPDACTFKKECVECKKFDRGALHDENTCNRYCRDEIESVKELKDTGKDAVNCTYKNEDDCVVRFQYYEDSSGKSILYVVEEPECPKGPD
Chain of Recombinant human integrin αvβ8 (P06756 31-992): as the sequence (P06756 31-992) above
Chain of Recombinant human integrin αvβ8 (P26012 43-684): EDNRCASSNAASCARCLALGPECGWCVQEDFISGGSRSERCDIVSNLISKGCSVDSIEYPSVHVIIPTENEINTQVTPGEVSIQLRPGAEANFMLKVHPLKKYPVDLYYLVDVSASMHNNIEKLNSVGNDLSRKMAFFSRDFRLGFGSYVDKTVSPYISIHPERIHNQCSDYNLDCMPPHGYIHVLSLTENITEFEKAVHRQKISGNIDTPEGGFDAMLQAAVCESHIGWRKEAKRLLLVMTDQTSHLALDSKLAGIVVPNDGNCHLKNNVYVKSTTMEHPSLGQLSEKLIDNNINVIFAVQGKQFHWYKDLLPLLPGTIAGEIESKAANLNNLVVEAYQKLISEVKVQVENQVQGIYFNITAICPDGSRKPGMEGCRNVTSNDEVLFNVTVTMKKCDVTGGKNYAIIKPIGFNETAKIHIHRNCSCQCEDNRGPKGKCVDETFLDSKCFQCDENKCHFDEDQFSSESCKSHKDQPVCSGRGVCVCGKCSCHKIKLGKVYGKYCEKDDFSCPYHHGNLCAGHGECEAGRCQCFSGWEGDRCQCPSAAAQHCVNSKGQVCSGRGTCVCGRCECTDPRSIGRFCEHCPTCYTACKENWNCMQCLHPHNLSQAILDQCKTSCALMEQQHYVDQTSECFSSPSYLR
Chain of Recombinant human integrin α5β1 (P08648 42-995): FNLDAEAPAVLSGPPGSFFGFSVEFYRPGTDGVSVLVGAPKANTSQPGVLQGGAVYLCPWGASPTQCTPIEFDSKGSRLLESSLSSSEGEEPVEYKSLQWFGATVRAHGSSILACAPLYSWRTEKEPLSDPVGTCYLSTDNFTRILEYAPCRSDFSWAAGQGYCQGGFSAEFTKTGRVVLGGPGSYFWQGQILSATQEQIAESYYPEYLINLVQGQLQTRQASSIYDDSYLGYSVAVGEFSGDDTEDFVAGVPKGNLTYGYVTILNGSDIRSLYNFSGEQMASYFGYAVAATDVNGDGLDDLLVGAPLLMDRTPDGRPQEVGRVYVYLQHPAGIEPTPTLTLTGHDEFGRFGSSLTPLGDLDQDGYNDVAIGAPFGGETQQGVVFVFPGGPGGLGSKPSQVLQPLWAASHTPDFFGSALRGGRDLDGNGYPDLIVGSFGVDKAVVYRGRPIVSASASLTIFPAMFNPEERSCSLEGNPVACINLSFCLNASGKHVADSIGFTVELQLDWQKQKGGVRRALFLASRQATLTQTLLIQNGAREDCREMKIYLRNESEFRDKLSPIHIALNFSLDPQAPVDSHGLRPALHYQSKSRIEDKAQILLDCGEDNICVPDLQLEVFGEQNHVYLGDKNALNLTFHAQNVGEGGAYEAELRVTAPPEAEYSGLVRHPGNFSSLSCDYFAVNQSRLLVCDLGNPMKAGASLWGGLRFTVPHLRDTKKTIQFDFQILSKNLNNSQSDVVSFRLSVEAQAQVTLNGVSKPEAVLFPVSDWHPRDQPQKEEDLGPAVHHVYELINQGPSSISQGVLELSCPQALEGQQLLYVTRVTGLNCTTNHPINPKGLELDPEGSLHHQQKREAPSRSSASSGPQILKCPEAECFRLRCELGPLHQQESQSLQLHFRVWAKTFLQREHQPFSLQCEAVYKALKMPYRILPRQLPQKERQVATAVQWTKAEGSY
Chain of Recombinant human integrin α5β1 (P05556 21-728): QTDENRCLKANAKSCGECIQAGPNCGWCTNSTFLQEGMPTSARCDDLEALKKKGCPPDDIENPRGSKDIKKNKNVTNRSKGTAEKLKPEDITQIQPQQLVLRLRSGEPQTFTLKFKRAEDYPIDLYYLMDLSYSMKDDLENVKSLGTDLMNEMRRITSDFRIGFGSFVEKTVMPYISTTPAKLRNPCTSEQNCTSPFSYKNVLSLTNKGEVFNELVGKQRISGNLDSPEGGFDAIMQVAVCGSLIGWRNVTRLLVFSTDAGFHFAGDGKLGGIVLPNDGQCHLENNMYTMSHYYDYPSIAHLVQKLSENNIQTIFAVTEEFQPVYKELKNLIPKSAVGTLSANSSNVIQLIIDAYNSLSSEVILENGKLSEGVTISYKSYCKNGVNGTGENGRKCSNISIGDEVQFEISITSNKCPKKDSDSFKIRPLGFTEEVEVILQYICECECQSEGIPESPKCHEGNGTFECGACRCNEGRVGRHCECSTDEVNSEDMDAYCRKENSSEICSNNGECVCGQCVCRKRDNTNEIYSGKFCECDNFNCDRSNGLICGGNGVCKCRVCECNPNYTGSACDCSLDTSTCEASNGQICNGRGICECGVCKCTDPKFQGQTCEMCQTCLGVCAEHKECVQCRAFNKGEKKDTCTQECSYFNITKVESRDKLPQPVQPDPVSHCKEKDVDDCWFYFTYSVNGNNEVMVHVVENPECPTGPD

A word on the IC50: it is the concentration needed to halve the response being measured. Turning to `O=C(O)C[C@H](NC(=O)CNC(=O)c1cncc(NC2=NCC(O)CN2)c1)c1cc(Cl)cc(Br)c1` (stereo partly drawn) [Example 8, (3S)-3-(3-bromo-5-chloro-phenyl)-3-[[2-[[5-[(5-hydroxy-1,4,5,6-tetrahydropyrimidin-2-yl)amino]pyridine-3-carbonyl]amino]acetyl]amino]propanoic acid], the results for the half-maximal inhibitory concentration (IC50) in assay [1], in assay [2] and in assay [3] were 0.6 nM, 0.4 nM and 4 nM, respectively.
As for `Cc1cc(Br)cc([C@H](CC(=O)O)NC(=O)CNC(=O)c2cc(O)cc(NC3=NCC(O)CN3)c2)c1` (stereo partly drawn) [Example 11, (3S)-3-[3-bromo-5-methyl-phenyl)-3-(2-(3-hydroxy-5-((5-hydroxy-1,4,5,6-tetrahydropyrimidin-2-yl)amino)benzamido)acetamido)propanoic acid], the values for the half-maximal inhibitory concentration (IC50) in assay [1], in assay [2] and in assay [3] were 0.5 nM, 0.6 nM and 2 nM, respectively.
For `O=C(O)C[C@H](NC(=O)CNC(=O)c1cc(O)cc(NC2=NCC(O)CN2)c1)c1cc(Cl)cc(C(F)(F)F)c1` (stereo partly drawn) [Example 5, (3S)-3-[3-chloro-5-(trifluoromethyl)phenyl)-3-(2-(3-hydroxy-5-((5-hydroxy-1,4,5,6-tetrahydropyrimidin-2-yl)amino)benzamido)acetamido]propanoic acid], in that order: 0.8 nM, 0.6 nM and 3 nM.
For `O=C(O)C[C@H](NC(=O)CNC(=O)c1cc(O)cc(NC2=NCC(O)CN2)c1)c1cc(F)cc(Br)c1` (stereo partly drawn) [Example 13, (3S)-3-[3-bromo-5-fluoro-phenyl)-3-(2-(3-hydroxy-5-((5-hydroxy-1,4,5,6-tetrahydropyrimidin-2-yl)amino)benzamido)acetamido)propanoic acid], in that order: 0.6 nM, 1 ± 0.3 nM and 1.7 nM.
In the case of `Cc1ccc(O)c(C(CC(=O)O)NC(=O)CNC(=O)c2cccc(NC(=N)N)c2)c1` (stereo not drawn) [Example C8, reference compound], the IC50 in assay [1] was found to be 38 nM; in assay [2], 18 nM; in assay [3] it was 5 nM.
For `N=C(N)Nc1cccc(C(=O)NCC(=O)NC(CC(=O)O)c2ccccc2)c1` (stereo not drawn) [Example C5, reference compound], in that order: 24 nM, 66 nM and 4 nM.
For `O=C(O)C[C@H](NC(=O)CNC(=O)c1cc(O)cc(NC2=NCC(O)CN2)c1)c1cc(Br)cc(Br)c1` (stereo partly drawn) [Example 1, (3S)-3-(3,5-dibromophenyl)-3-(2-(3-hydroxy-5-((5-hydroxy-1,4,5,6-tetrahydropyrimidin-2-yl)amino)benzamido)acetamido)propanoic acid], in that order: 1 ± 0.5 nM, 0.3 ± 0.1 nM and 2.3 ± 0.1 nM.
For `O=C(O)C[C@H](NC(=O)CNC(=O)c1cc(O)cc(NC2=NCC(O)CN2)c1)c1cc(Cl)cc(C(F)F)c1` (stereo partly drawn) [Example 3, (3S)-3-[3-chloro-5-(difluoromethyl)phenyl)-3-(2-(3-hydroxy-5-((5-hydroxy-1,4,5,6-tetrahydropyrimidin-2-yl)amino)benzamido)acetamido]propanoic acid], in that order: 0.5 nM, 0.3 nM and 1 nM.
As to `O=C(O)C[C@H](NC(=O)CNC(=O)c1cc(O)cc(NC2=NCC(O)CN2)c1)c1cc(Br)cc(C(F)F)c1` (stereo partly drawn) [Example 4, (3S)-3-[3-bromo-5-(difluoromethyl)phenyl)-3-(2-(3-hydroxy-5-((5-hydroxy-1,4,5,6-tetrahydropyrimidin-2-yl)amino)benzamido)acetamido]propanoic acid], the IC50 in assay [1] was determined as 0.7 nM; in assay [2], 0.4 nM; in assay [3] it was 3 nM.
In the case of `O=C(O)C[C@H](NC(=O)CNC(=O)c1cc(O)cc(NC2=NCC(O)CN2)c1)c1cc(Cl)cc(Br)c1` (stereo partly drawn) [Example 6, (3S)-3-[3-bromo-5-chloro-phenyl)-3-(2-(3-hydroxy-5-((5-hydroxy-1,4,5,6-tetrahydropyrimidin-2-yl)amino)benzamido)acetamido]propanoic acid], the figures for the half-inhibitory concentration (IC50) in assay [1], in assay [2] and in assay [3] were 0.6 nM, 0.5 nM and 1 nM, respectively.
For `O=C(O)C[C@H](NC(=O)CNC(=O)c1cc(O)cc(NC2=NCC(O)CN2)c1)c1cc(Cl)cc(OC(F)(F)F)c1` (stereo partly drawn) [Example 16, (3S)-3-[3-chloro-5-(trifluoromethoxy)phenyl)-3-(2-(3-hydroxy-5-((5-hydroxy-1,4,5,6-tetrahydropyrimidin-2-yl)amino)benzamido)acetamido)propanoic acid], in that order: 1 ± 0.4 nM, 0.3 ± 0.1 nM and 3 ± 0.3 nM.
Taken in the same sequence, the figures for `Cc1ccc(O)c(C(CC(=O)O)NC(=O)CNC(=O)c2cc(O)cc(NC3=NCC(O)CN3)c2)c1` (stereo not drawn) [Example C6, reference compound] were 7 ± 4 nM, 9 ± 6 nM and 6 nM.
Taken in the same sequence, the figures for `O=C(O)CC(NC(=O)CNC(=O)c1cc(O)cc(NC2=NCC(O)CN2)c1)c1cc(Cl)cc(Cl)c1O` (stereo not drawn) [Example C3, reference compound] were 40 nM, 2 nM and 2 nM.
As to `O=C(O)C[C@H](NC(=O)CNC(=O)c1cc(O)cc(NC2=NCC(O)CN2)c1)c1cc(Br)cc(OC(F)(F)F)c1` (stereo partly drawn) [Example 17, (3S)-3-(3-bromo-5-(trifluoromethoxy)phenyl)-3-(2-(3-hydroxy-5-((5-hydroxy-1,4,5,6-tetrahydropyrimidin-2-yl)amino)benzamido)acetamido)propanoic acid], the concentration for half-maximal inhibition (IC50) in assay [1] stood at 1 ± 0.1 nM; in assay [2], 0.3 ± 0.1 nM; in assay [3], 2.8 ± 1.1 nM.
Taken in the same sequence, the figures for `O=C(O)C[C@H](NC(=O)CNC(=O)c1cncc(NC2=NCC(O)CN2)c1)c1cc(Cl)cc(C(F)(F)F)c1` (stereo partly drawn) [Example 7] were 0.7 nM, 0.4 nM and 3 nM.
For `Cc1cc(Cl)cc([C@@H](CC(=O)O)NC(=O)CNC(=O)c2cccc(NC3=NCCN3)c2)c1O` [Example C11, reference compound], in that order: 33 nM, 11 nM and 9 nM.

Values taken from US10035778B2, “Meta-azacyclic amino benzoic acid derivatives as pan integrin antagonists” (Saint Louis University, priority 2015, dated 2018).
